{"source": "patent US11056705B2", "about": "“Organic anolyte materials for flow batteries” (THE REGENTS OF THE UNIVERSITY OF MICHIGAN, priority 2015, dated 2021)", "key": {"[1]": {"assay": "Stability of solutions in MeCN monitored by 1H NMR or UV-vis spectroscopy", "assay_type": "physicochemical", "description": "The stabilities of 10a, 10a^(•) and Na-10a^(−) were monitored as solutions in MeCN by ^1H NMR spectroscopy or UV-vis spectroscopy. Separate solutions of 10a, 10a^(•) and Na-10a^(−) in MeCN were prepared at 480 mM, 540 mM and 39 mM concentrations, respectively. The parent compound 10a was monitored by ^1H NMR spectroscopy against an internal standard of 1,3,5-trimethoxybenzene. […] Solutions of the reduced species 10a^(•) and Na-10a^(−) were stored at room temperature under nitrogen, and the concentrations of the solutions were measured periodically over 36 h or 48 h by UV-vis spectroscopy (FIG. 13)."}, "[2]": {"assay": "Cyclic voltammetry (CV) of anolyte candidates in a three-electrode cell", "assay_type": "physicochemical", "conditions": "for baseline (initial) current at starting potential of +1 V: MeCN/LiBF4, 0.01 M, 100 mV/s; for current ratio i9a(−)/iLi-9a: 0.1 M LiBF4 in MeCN"}, "physchem": {"assay": "physchem", "conditions": "organic solvent or mixture, thermodynamic from solid", "procedure": "(§1) The solubilities of 10a, 10a^(•), and Na-10a^(−) were determined by UV-vis spectroscopy in MeCN under an inert atmosphere.\n(§2) A saturated solution of 10a^(•) was prepared and analyzed at 322 nm by UV-vis spectroscopy."}, "[3]": {"assay": "Solubility in MeCN by UV-vis spectroscopy under inert atmosphere", "procedure": "as §1, §2"}, "[4]": {"assay": "Simulation of CVs fit to experimental data: Li+ association/dissociation with charged anolyte", "assay_type": "physicochemical", "description": "To obtain values for the rates for association as well as the equilibrium constant for formation of Li-9a, the redox system proposed in Scheme 9 was computationally modeled. Diffusion constants for the anolyte were calculated to be on the order of 2×10^−9 m^2/s by analysis of changes in the potential at the first reductive couple with variable scan rates. This value was applied for all species in the simulation based on their similar molecular weights. A resistance of 400 ohms and no capacitance was simulated for all couples. With these parameters, the simulations were fit to experimental data acquired at variable scan rates (FIG. 9) in order to estimate the rate constants for association and dissociation of Li^+. The experimentally measured CVs features were accurately reproduced when the rate constant for Li^+ coordination was 10 M^−1s^−1 and the rate constant for dissociation was 0.5 s^−1. These rate constants indicate that the equilibrium constant for binding of Li^+ to 9a^(−) is on the order of 20 M^−1.\nThis system was further investigated at higher concentrations of Li^+. CVs were acquired at concentrations of LiBF4 ranging from 57 mM to 260 mM with a constant 0.1 M concentration of 9a (FIG. 9b; solid lines). As expected, higher concentrations of LiBF4 led to greater currents from the oxidation of Li-9a. The calculated rate constants (ki=10 M^−1s^−1, k^−1=0.5 s^−1) were employed to model the effects of LiBF4 concentration on the current peak-heights. The results are illustrated in FIG. 9b (dashed lines) and are in full agreement with the experimentally measured CVs."}, "[5]": {"conditions": "simulation fit to experimental CVs at variable scan rates, MeCN/LiBF4"}, "[6]": {"conditions": "MeCN/LiBF4, cathodic sweep starting at +1 V"}}, "note": "“And” between values parts separate entries of the source, which are not always exact repeats. Identical values can stand only once.", "data": [{"smiles": "CC(=O)c1cc[n+](C)cc1", "note": "[Compound 10a]", "values": [{"measurement": "decomposition in solution", "setting": "[1]; 480 mM in MeCN, 1H NMR vs internal standard, four days, in the presence of air and moisture", "result": "No measurable decomposition"}, {"measurement": "difference of first reduction potential, 9a versus 10a", "setting": "[2]; MeCN/LiBF4", "result": 0.1, "unit": "V"}, {"measurement": "peak height ratios of two reductive couples", "setting": "[2]; MeCN/LiBF4", "result": "close to 1"}, {"measurement": "second reduction more positive than that of 9a", "setting": "[2]; MeCN/LiBF4", "result": 0.4, "unit": "V"}, {"measurement": "baseline (initial) current at starting potential of +1 V", "setting": "[2]", "result": "no analogous current is observed"}, {"measurement": "solubility", "setting": "physchem", "result": "1600 ± 100", "unit": "mM"}]}, {"smiles": "CC([O-])=C1C=CN(C)C=C1.[Na+]", "note": "[Na-10a^(−)]", "values": [{"measurement": "concentration of solution on storage", "setting": "[1]; MeCN, room temperature under nitrogen, UV-vis over 36 h or 48 h, 540 mM (10a•), 39 mM (Na-10a−)", "result": "did not change"}, {"measurement": "baseline (initial) current at starting potential of +1 V", "setting": "[2]", "result": "40-50 μA and 45 μA"}, {"measurement": "solubility (saturation concentration)", "setting": "[3]", "result": "0.062 ± 0.007", "unit": "M"}]}, {"smiles": "COC(=O)c1cc[n+](C)cc1.F[B-](F)(F)F", "note": "[Compound 9a]", "values": [{"measurement": "diffusion constant", "setting": "[4]; from changes in potential at the first reductive couple with variable scan rates", "result": "~2×10^−9 m^2/s"}, {"measurement": "equilibrium constant for binding of Li^+", "setting": "[4]; from the fitted rate constants", "result": "~20", "unit": "M⁻¹"}, {"measurement": "rate constant for Li^+ coordination", "setting": "[4]; [5]", "result": 10, "unit": "M⁻¹ s⁻¹"}, {"measurement": "rate constant for dissociation", "setting": "[4]; [5]", "result": 0.5, "unit": "s⁻¹"}, {"measurement": "current ratio i9a(−)/iLi-9a", "setting": "[2]; 50 mV/s", "result": 32}, {"measurement": "current ratio i9a(−)/iLi-9a", "setting": "[2]; 200 mV/s", "result": 11}, {"measurement": "current ratio i9a(−)/iLi-9a", "setting": "[2]; 500 mV/s", "result": 6}, {"measurement": "potential at which charged anolyte is oxidized (discharged)", "setting": "[2]; MeCN, 0.1 M LiBF4", "result": "−1.7", "unit": "V"}, {"measurement": "current at +0.4 V (lithium adduct formation)", "setting": "[2]; MeCN, 0.1 M LiBF4, 200 mV/s", "result": "almost no current was detected"}, {"measurement": "first single-electron reduction (step i)", "setting": "[2]; [6]", "result": "−1.1", "unit": "V"}, {"measurement": "second single-electron reduction (step ii)", "setting": "[2]; [6]", "result": "−1.9", "unit": "V"}]}]}
